We go through 19 compounds from patent US6395762B1, “Phenyl amino squarate and thiadiazole dioxide beta-3 adrenergic receptor agonists” (American Home Products Corporation, priority 2000, dated 2002).

One data set concerns the target T1, human β3-AR (Homo sapiens, UniProt P13945).
T1 construct: Full-length β3-AR clones (402 amino acids) containing the last 6 amino acids of hβ3-AR; expressed in transfected cells; host or cells: CHO (Chinese hamster ovary) cells
The experiment in a line: cAMP accumulation (SPA) in CHO cells transfected with human β3-AR. As to conditions: CHO cells transfected with human β3-AR; for EC50: cAMP by SPA, 30 min at 37° C., 10^−9 M to 10^−5 M, read-out: EC50(β3); for IA(β3): maximal response of compound relative to maximal response of isoproterenol at 10^−5 M. In kind it is cell-based. As to the method: The ability of the compounds of this invention to treat or inhibit disorders related to insulin resistance or hyperglycemia was confirmed with representative compounds of this invention in the following standard pharmacological test procedures, which measured the binding selectivity of the β1-, β2-, and β3-AR. Binding to the receptors was measured in Chinese Hamster ovary (CHO) cells that were transfected with β1-, β2-, and β3-AR's. The following briefly summarizes the procedures used and results obtained.
Cloning of Human β3-AR Genomic DNA: cDNA was constructed by ligating four polymerase chain reaction (PCR) products using the following primers: an ATG-Narl fragment, sense primer 5′-[…]3′ and anti-sense primer 5′[…]3′; a Narl-Accl fragment, 5′[…]3′ as sense and 5′[…]3′ as anti-sense primer; an Accli—Styl fragment, sense primer 5′[…]3′ and anti-sense primer 5′[…]3′ and a Styl-TAG fragment, with sense primer 5′ […]3′ and anti-sense primer 5′ […]3′ . The corresponding primer sequences are described in Mantzoros, C. S., et.al., Diabetes, 1996, 45, 909-914. The four fragments are ligated into a pUC 18 plasmid (Gibco-BRL) and sequenced. Full-length β3-AR clones (402 amino acids) containing the last 6 amino acids of hβ3-AR are prepared with the β3-βARpcDNA3 from ATTC.
Binding Procedure: Clones expressing receptor levels of 70 to 110 fmoles/mg protein were used in the test procedures. CHO cells were grown in 24-well tissue culture plates in Dulbecco's Modified Eagle Media with 10% fetal bovine serum, MEM non-essential amino acids, Penicillin—Streptomycin and Geneticin. On the day of test procedure, growth medium was replaced with preincubation media (Dulbecco's Modified Eagle Media) and incubated for 30 minutes at 37° C. Pre-incubation medium was replaced with 0.2 ml treatment medium containing DMEM media containing 250 μM IBMX (isobutyl-1-methylxantine) plus 1 mM ascorbic acid with test compound dissolved in DMSO. Test compounds were assayed over a concentration range of 10^−9 M to 10^−5 M for β3-AR transfected cells and 10^−8 to 10^−4 M for β1-AR and β2-AR transfected cells. Isoproterenol (10^−5 M) was used as an internal standard for comparison of activity. Cells were incubated at 37° C. on a rocker for 30 min with the β3-AR transfected cells and 15 min with β1-AR and β2-AR transfected cells. Incubation was stopped by the addition of 0.2N HCl and the acid was neutralized with 2.5N NaOH. The plates, containing the cells and neutralized media, were stored at −20° C. until ready to test for cAMP using the SPA test kit (Amersham).
Data Analysis and Results: Data collected from the SPA test procedure were analyzed as percent of the maximal isoproterenol response at 10^−5 M. Activity curves were plotted using the SAS statistical and graphics software.
Background: cAMP levels reflect the balance of adenylyl cyclase and phosphodiesterase activity.

Counter-ions that a name gives are not always drawn.

T1 sequence (P13945 whole entry): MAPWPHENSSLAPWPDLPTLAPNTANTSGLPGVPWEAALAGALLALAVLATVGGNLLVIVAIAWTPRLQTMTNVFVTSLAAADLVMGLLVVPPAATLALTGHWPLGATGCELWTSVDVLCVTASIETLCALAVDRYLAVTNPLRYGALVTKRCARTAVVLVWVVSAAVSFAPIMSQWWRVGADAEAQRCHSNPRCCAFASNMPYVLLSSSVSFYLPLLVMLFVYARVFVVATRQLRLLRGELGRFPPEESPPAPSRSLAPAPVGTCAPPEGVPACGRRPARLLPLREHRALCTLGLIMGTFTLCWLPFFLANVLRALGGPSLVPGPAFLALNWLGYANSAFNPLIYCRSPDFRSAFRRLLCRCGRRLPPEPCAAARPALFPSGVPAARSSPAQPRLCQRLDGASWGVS

In the case of `CCCCCCCCCCNC1=NS(=O)(=O)N=C1Nc1ccc(CC(C)NC[C@H](O)c2ccc(O)c(NS(C)(=O)=O)c2)cc1` (stereo partly drawn) [Compound 27, N-[5-((1R)-2-{2-[4-(4-Decylamino-1,1-dioxo-1H-1(lambda(6))-[1 2,5]thiadiazol-3-ylamino)-phenyl]-1-methyl-ethylamino}-1-hydroxy-ethyl)-2-hydroxy-phenyl]-methanesulfonamide], the melting point was 120 °C (dec.). Also, at human β3-AR, the concentration for a half-maximal effect (EC50) amounted to 0.009 µM and the “IA(β3)” value is 1.27.
For `CCCCCCCCNC1=NS(=O)(=O)N=C1Nc1ccc(CCNC[C@H](O)COc2ccc(O)cc2)cc1` [Compound 5, 4-((2S)-2-Hydroxy-3-{2-[4-(4-octylamino-1,1-dioxo-1H-1.lambda(6).-[1,2,5]thiadiazol-3-ylamino)-phenyl]-ethylamino}-propoxy)-phenol], in that order: 98 °C (dec.), 0.018 µM and 0.75.
For the compound `CC(C)(Cc1ccc(NC2=NS(=O)(=O)N=C2NCC(c2ccccc2)c2ccccc2)cc1)NC[C@H](O)COc1ccc(OCc2ccccc2)cc1` [Compound 28], the melting point is 222.5 to 224.5 °C (dec.). Moreover, on human β3-AR, the concentration for a half-maximal effect (EC50) came to 1.42 µM and the “IA(β3)” value is recorded as 0.83.
As for `CCCCCCNC(=O)Nc1ccc(C2(CNC3=NS(=O)(=O)N=C3Nc3ccc(CC(C)(C)NC[C@H](O)COc4ccc(O)cc4)cc3)CCCC2)cc1` [Compound 8, 1-Hexyl-3-[4-(1-{[4-(4-{2-[(2S)-2-hydroxy-3-(4-hydroxy-phenoxy)-propylamino]-2-methyl-propyl}-phenylamino)-1,1-dioxo-1H-1.lambda(6).-{1,2,5]thiadiazol-3-ylamino]-methyl}-cyclopentyl)-phenyl]-urea], the melting point fell in the range of 154.5 to 158.5 °C. Besides, at human β3-AR, the concentration giving a half-maximal response (EC50) is 0.01 µM and the “IA(β3)” value was found to be 0.91.
For the compound `CCCCCCCCCCNc1c(Nc2ccc(CC(C)NC[C@H](O)COc3ccc(O)cc3)cc2)c(=O)c1=O` (stereo partly shown) [Compound 15], the melting point lay within 130 to 132 °C. Moreover, at human β3-AR, the concentration giving a half-maximal response (EC50) was determined as 0.086 µM and the “IA(β3)” value amounted to 0.97.
The compound `CC(Cc1ccc(NC2=NS(=O)(=O)N=C2NCC2(c3ccccc3)CCCC2)cc1)NC[C@H](O)COc1ccc(O)cc1` (stereo partly drawn) (as salt: HCl) [Compound 31, 4-{(2S)-3-[2-(4-{1,1-Dioxo-4-[(1-phenyl-cyclopentylmethyl)-amino]-1H-1(lambda(6))-[1,2,5]thiadiazol-3-ylamino}-phenyl)-1-methyl-ethylamino]-2-hydroxy-propoxy}-phenol] had a melting point of 162 to 165 °C.
`CCCCCCCCNC1=NS(=O)(=O)N=C1Nc1cccc(CC(C)NCC(O)c2cccc(Cl)c2)c1` [Compound 2, (1R)-1-(3-Chloro-phenyl)-2-{1-methyl-2-[3-(4-octylamino-1,1-dioxo-1H-1-.lambda(6).-[1,2,5]thiadiazol-3-ylamino)-phenyl-]-ethylamino}-ethanol]: the melting point fell in the range of 90 to 96 °C. In addition, at human β3-AR, the 50% effective concentration (EC50) was 0.198 µM and the “IA(β3)” value is given as 0.42.
In the case of `CCCCCCCCNC1=NS(=O)(=O)N=C1Nc1ccc(CC(C)NC[C@H](O)COc2cccc3[nH]c4ccccc4c23)cc1` (stereo partly drawn) [Compound 21, (2S)-1-(9H-Carbazol-4-yloxy)-3-{1-methyl-2-[4-(4-octylamino-1,1-dioxo-1H-1(lambda(6))-[1,2,5]thiadiazol-3-ylamino)-phenyl]-ethylamino}-propan-2-ol], the melting point fell in the range of 121 to 124 °C. In addition, at human β3-AR, the concentration for a half-maximal effect (EC50) is 0.064 µM and the “IA(β3)” value came out at 0.64.
`CC(Cc1ccc(NC2=NS(=O)(=O)N=C2NCC2(c3ccccc3)CCCC2)cc1)NC[C@H](O)COc1ccc(OCc2ccccc2)cc1` (stereo partly drawn) [Compound 30, (2S)-1-(4-Benzyloxy-phenoxy)-3-[2-(4-{1 ,-dioxo-4-[(1-phenyl-cyclopentylmethyl)-amino]-1H-1(lambda(6))-[1,2,5]thiadiazol-3-ylamino}-phenyl)-1-methyl-ethylamino]-propan-2-ol] came in with a melting point of 103 to 105 °C. Further, on human β3-AR, the concentration giving a half-maximal response (EC50) worked out at 0.116 µM and the “IA(β3)” value is recorded as 0.93.
Regarding `CCCCCCCCNC1=NS(=O)(=O)N=C1Nc1ccc(CC(C)NC[C@H](O)COc2ccccc2)cc1` (stereo partly drawn) [Compound 22, (2S)-1-{[1-methyl-2-(4-{[4-(octylamino)-1,1-dioxido-1,2,5-thiadiazol-3-yl]amino}phenyl)ethyl]amino}-3-phenoxypropan-2-ol], the melting point lay in the range of 77 to 82 °C. Also, the “IA(β3)” value at human β3-AR was determined as 0.39.
Take `CCCCCCNC1=NS(=O)(=O)N=C1Nc1cccc(CC(C)NC[C@H](O)c2cccc(Cl)c2)c1` (stereo partly drawn) [Compound 9, (1R)-1-(3-Chloro-phenyl)-2-{2-[3-(4-hexylamino-1,1-dioxo-1H-1-.lambda(6) .-[1,2,5]thiadiazol-3-ylamino)-phenyl]-1-methyl-ethylamino}-ethanol]: the melting point is 90 to 96 °C. Besides, at human β3-AR, the EC50 amounted to 0.204 µM and the “IA(β3)” value amounted to 0.74.
Compound `COc1ccc(CCNC2=NS(=O)(=O)N=C2Nc2ccc(CC(C)NC[C@H](O)COc3ccc(O)cc3)cc2)cc1` (stereo partly drawn) [Compound 36, (S)-4-{2-hydroxy-3-[2-(4-{4-[2-(4methoxy-phenyl)-ethylamino]-1 1-dioxo-1H-1.lambda(6).-[1,2,5]thiadiazol-3-ylamino}-phenyl)-1-methyl-ethylamino]-propoxy}-phenol] displayed a melting point of 95 to 100 °C. At human β3-AR, the EC50 came out at 0.005 µM and the “IA(β3)” value is 0.91.
`CCCCCCCCCCNC1=NS(=O)(=O)N=C1Nc1ccc(CC(C)NC[C@H](O)COc2ccc(O)cc2)cc1` (stereo partly drawn) (as salt: HCl) [Compound 25, 4-((2S)-3-{2-[4-(4-Decylamino-1,1-dioxo-1H-1(lambda(6))-[1,2,5]thiadiazol-3-ylamino)-phenyl]-1-methyl-ethylamino}-2-hydroxy-propoxy)-phenol]: the melting point was in the range of 146 to 155 °C.
The compound `CCCCCCCCNc1c(Nc2ccc(CC(C)NC[C@H](O)COc3cccc4[nH]c5ccccc5c34)cc2)c(=O)c1=O` (stereo partly drawn) [Compound 16, 3-(4-{2-[(2S)-3-(9H-Carbazol-4-yloxy)-2-hydroxy-propylamino]-propyl}-phenylamino)-4-octylamino-cyclobut-3-ene-1,2-dione] had a melting point of 125 to 131 °C. Further, at human β3-AR, the 50% effective concentration (EC50) came out at 0.233 µM and the “IA(β3)” value came to 0.47.
In turn, `CCCCCCCCCCNc1c(Nc2ccc(CCCNC[C@H](O)COc3cccc4[nH]c5ccccc5c34)cc2)c(=O)c1=O` [Compound 17, 3-(4-{[(2S)-3-(9H-Carbazol-4-yloxy)-2-hydroxy-propylamino]-propyl}-phenylamino)-4-decylamino-cyclobut-3-ene-1,2-dione] showed a melting point of 225 °C. In addition, the “IA(β3)” value at human β3-AR worked out at 0.31.
On to `CCCCCCCCNC1=NS(=O)(=O)N=C1Nc1ccc(CC(C)NC[C@H](O)c2ccc(O)c(NS(C)(=O)=O)c2)cc1` (stereo partly shown) [Compound 6], for which the melting point was 120 °C (dec.). Also, on human β3-AR, the EC50 came out at 0.002 µM and the “IA(β3)” value is 1.26.
Take `CCCCCCCCNC1=NS(=O)(=O)N=C1Nc1ccc(CC(C)NC[C@H](O)COc2ccc(O)cc2)cc1` (stereo partly drawn) [Compound 12, 4-((2S)-2-Hydroxy-3-{1-methyl-2-[4-(4-octylamino-1,1-dioxo-1H-1-.lambda(6).-[1,2,5]thiadiazol-3-ylamino)-phenyl]-1-ethylamino}-propoxy)-phenol]: the melting point was in the range of 203.5 to 206 °C. Also, at human β3-AR, the concentration giving a half-maximal response (EC50) came out at 0.011 µM and the “IA(β3)” value came out at 1.45.
Take `CCCCCCCCNc1c(Nc2ccc(CC(C)NC[C@H](O)c3cccc(Cl)c3)cc2)c(=O)c1=O` (stereo partly drawn) [Compound 10, 3-(4-{2-[(2R)-2-(3-Chloro-phenyl)-2-hydroxy-ethylamino]-propyl}-phenylamino)-4-octylamino-cyclobut-3-ene-1 2-dione]: the melting point lay in the range of 173 to 175 °C. Further, at human β3-AR, the EC50 amounted to 0.087 µM and the “IA(β3)” value turned out to be 0.71.
`CCCCCCCCNC1=NS(=O)(=O)N=C1Nc1ccc(CC(C)(C)NC[C@H](O)COc2ccc(O)cc2)cc1` (as salt: HCl) [Compound 4] registered a melting point of 229.5 to 231.3 °C.

Broadly, the EC50 is the midpoint of the concentration-response curve. What is called melting point is the temperature, or range, at which the solid turns liquid.
